Test [1] has as its system Candida albicans 90028. In words: Antifungal microdilution, C. albicans ATCC 90028. The format is cell-based. The settings on record: microdilution CLSI M27-A3, 48 h, 37 °C. How it is done: (§1) In accordance with CLSI guidelines, compounds 3a–h were tested against a variety of fungal strains (Candida albicans 10231, Candida albicans 90028, Candida glabrata 15126, and Candida parapsilosis 22019) belonging to the ATCC collection. Amphotericin B was utilized as a reference drug. A similar trend of results, or even better than that obtained against bacteria, was assessed against fungal strains. […] Also, in this case, compound 3h emerged as the best of the series, with MICs of 16 μg/mL against Candida glabrata and Candida parapsilosis strains and 32 μg/mL against Candida albicans strains.
(§2) A microdilution technique described by the Clinical and Laboratory Standards Institute (CLSI, M27-A3) was used to assess the antifungal activity. The following fungal strains, belonging to the ATCC collection and available as freeze-dried discs, were used: C. albicans ATCC 10231, C. albicans ATCC 90028, C. glabrata ATCC 15126, and C. parapsilosis ATCC 22019. Stock solutions were prepared and preserved with purity as previously described for the antibacterial studies. Each yeast strain’s pre-cultures were made in Sabouraud broth (SAB) and allowed to grow until they stopped at 37 °C. By using a spectrophotometric technique (530 nm, range 0.12–0.15), the turbidity of the yeast stock suspension was calibrated to 0.5 McFarland Standard. Next, the standardized suspension was diluted first at 1:50 with SAB and then at 1:20 in the same medium to have […]. A total of 100 µL of inoculum was seeded into each well. As a control for growth, several wells containing only inoculated broth were prepared. The plates were incubated for 48 h at 37 °C, and the MIC values were calculated as the final well with no fungal growth. […] MIC values were observed based on the absence of fungal growth in the final well. The MICs were calculated by conducting the antifungal test three times in duplicate. As a control, amphotericin B was used.
In general terms: Dilution methods test growth across graded concentrations, often in twofold steps.

Test [2] has as its system Candida parapsilosis 22019. As to the kind of experiment: Antifungal microdilution, C. parapsilosis ATCC 22019. The class given is cell-based. The settings on record: microdilution CLSI M27-A3, 48 h, 37 °C, read-out: MIC C.p. 22019. How it is done:
as §1, §2

Test [3] deals with Candida glabrata 15126. In words: Antifungal microdilution, C. glabrata ATCC 15126. The format is cell-based. As to conditions: Nakaseomyces glabratus, microdilution CLSI M27-A3, 48 h, 37 °C, read-out: MIC C.g. 15126. As for the experimental part:
as §1, §2

For test [4], the system named is Candida albicans 10231. In words: Antifungal microdilution, C. albicans ATCC 10231. The class given is cell-based. As to conditions: microdilution CLSI M27-A3, 48 h, 37 °C. How it is done:
as §1, §2

In test [5] the test system is Klebsiella pneumoniae 13883. In words: Broth microdilution, K. pneumoniae ATCC 13883. The format is cell-based. As to conditions: 24 h, 37 °C, read-out: MIC K.p. 13883. An excerpt: (§3) Compounds 3a–h were examined in accordance with the Clinical Laboratory Standards Institute (CLSI) recommendations, by means of the broth microdilution method, against gram-positive bacteria (Staphylococcus aureus 25923, Staphylococcus aureus 29213, Staphylococcus aureus 43300, Enterococcus faecalis 29212) and gram-negative bacteria (Escherichia coli 25922, Klebsiella pneumoniae 13883, Pseudomonas aeruginosa 27853) belonging to the ATCC collection, using levofloxacin as a reference drug. Table 3 lists the results, expressed as MIC (µg/mL). […] The lack of activity observed for compound 3d could be conceivably due to its poor solubility in the culture medium containing the inoculum.
(§4) Following the recommendations of the CLSI (Clinical and Laboratory Standards Institute, 2012), the broth microdilution method was used to determine the in vitro minimum inhibitory concentrations (MICs, µg/mL).. The concentration of the investigated compounds was set to its highest value to create stock solutions. Then, the stock solutions were diluted 1:10 with Cation-Adjusted Mueller Hinton Broth (Oxoid, Milan, Italy). After that, a series of concentrations from 512 µg/mL to […] were obtained in the wells by performing two-fold serial dilutions in the appropriate test medium. The diluent used to create the stock solution was 100% DMSO. We used the following bacterial strains from the ATCC collection that were available as freeze-dried discs: gram-positive strains such as S. aureus ATCC 25923, 29213, and 43300, and E. faecalis ATCC 29212, and gram-negative ones such as E. coli ATCC 25922, K. pneuomoniae ATCC 13883, and P. aeruginosa ATCC 27853. To preserve the purity of cultures and to allow their reproducibility, cryovials of all microbial strains were set up in the medium and stored at −80 °C. Mueller Hinton Broth (MHB) was used to prepare pre-cultures of each bacterial strain, which were then incubated for 3–5 h at 37 °C. In accordance with CLSI procedure M7-A9, the turbidity of the bacterial cell suspension was calibrated to 0.5 McFarland Standard using a spectrophotometric approach (OD625 nm 0.08–0.10). The standardized suspension was then further diluted (1:100) with MHB to reach 1–2 × 10^6 CFU/mL. A 200 µL aliquot of the final inoculum was inserted into each well. As a control for growth, several wells containing only inoculated broth were prepared. The plates were incubated at 37 °C for 24 h, and the MIC values were calculated as the lowest concentration of compounds at which there was no optically detectable bacteria growth. Each experiment was carried out in duplicate and repeated twice to determine the MICs. Levofloxacin served as the study’s standard reference antibiotic. Additionally, the antibacterial activity of DMSO alone (used as a diluent for the investigated compounds) was examined; therefore, volumes of this solvent with a concentration of less than 5% were utilized throughout the experimentation.

In test [6] the test system is Escherichia coli 25922. In words: Broth microdilution, E. coli ATCC 25922. The class given is cell-based. The settings on record: 24 h, 37 °C.
Description: as §3, §4

Test [7] relates to Staphylococcus aureus 25923. As to the kind of experiment: Broth microdilution, S. aureus ATCC 25923. The class given is cell-based. The settings on record: Staphylococcus aureus, 25923, 24 h, 37 °C.
Description: as §3, §4

Test [8] deals with Pseudomonas aeruginosa 27853. In words: Broth microdilution, P. aeruginosa ATCC 27853. The settings on record: 24 h, 37 °C. The format is cell-based.
Description: as §3, §4

The test system of test [9] is Enterococcus faecalis 29212. As to the kind of experiment: Broth microdilution, E. faecalis ATCC 29212. The class given is cell-based. As to conditions: 24 h, 37 °C, read-out: MIC E.f. 29212.
Description: as §3, §4

Test [10] has as its system Staphylococcus aureus 43300. In words: Broth microdilution, S. aureus ATCC 43300. The class given is cell-based. As to conditions: 24 h, 37 °C, methicillin-resistant.
Description: as §3, §4

The subject of test [11] is Acinetobacter baumanii 19606. As to the kind of experiment: Broth microdilution, A. baumanii 19606. The class given is cell-based. As to conditions: Acinetobacter baumannii, 24 h, 37 °C, read-out: MIC A.b. 19606.
Test [12] relates to Staphylococcus aureus 29213. In words: Broth microdilution, S. aureus ATCC 29213. The format is cell-based. As to conditions: 24 h, 37 °C.
Description: as §3, §4

Test [13] relates to MCF-10A cells. As to the kind of experiment: MTT cell viability assay, nonmalignant MCF-10A. As to conditions: Homo sapiens, 72 h exposure, nonmalignant breast epithelial cells, mean ± SD, read-out: IC50 MCF10-A. The class given is cell-based. As for the experimental part:
(§5) The anticancer activity of the studied compounds (3a–h) was explored with regards to two human breast cancer cell lines, namely the estrogen receptor positive (ER+) MCF-7 cells and the triple negative MDA-MB-231 cells (ER-, PR-, and HER-2/Neu-). Cells were continuously exposed to the test substances for 72 h, after which their viability was assessed by means of the MTT assay. Table 2 lists the determined IC50 values for the investigated substances and the reference drug, thalidomide. […] Additionally, the same test for all the compounds has been performed on nonmalignant breast epithelial cells (MCF-10A) to ascertain their potential cytotoxicity.
(§6) The four cell lines used in this work (MCF-7, MDA-MB-231, MCF-10A, and 3T3-L1) were obtained from the American Type Culture Collection (ATCC, Manassas, VA, USA). All cell lines were maintained at 37 °C in a humidified atmosphere of 95% air and 5% CO2 and periodically screened for contamination. MCF-7, human breast cancer cells estrogen receptor (ER)-positive, and human breast cancer triple negative MDA-MB231 were grown in DMEM-F12 medium containing 2 mmol/L L-glutamine, 1 mg/mL penicillin–streptomycin, and 5% newborn calf serum (NCS) or 5% fetal bovine serum (FBS), respectively. MCF-10A human mammary epithelial cells were cultured in DMEM/F12 medium, supplemented with 5% horse serum (HS) (Eurobio, Les Ullis, Cedex, France), 100 U/mL penicillin/streptomycin, […], 20 ng/mL hEGF (human epidermal growth factor), […], and […] (Sigma-Aldrich, Milano, Italy). BALB/3T3 murine fibroblast cells were cultured in DMEM high glucose supplemented with 10% bovine calf serum (BCS), 1% L-glutamine, and 100 U/mL penicillin/streptomycin.
(§7) Cell viability was evaluated by means of the 3-(4,5-dimethylthiazol-2-y1)-2,5-diphenyltetra zolium bromide (MTT, Sigma-Aldrich, Milan, Italy) assay. On 48-well plates, cells were seeded, and they were cultured in complete medium. Before being treated, cells were starved in serum-free medium for 24 h to allow cell cycle synchronization. Subsequently, cells were exposed to increasing doses of each compound for 72 h in phenol-red-free media supplemented with 1% serum before fresh MTT was added to each well (final concentration: 0.5 mg/mL). Cells were lysed with DMSO after 2 h of incubation at 37 °C, and optical density at 570 nm was then determined with a microplate reader. Using GraphPad Prism 9 software (GraphPad Inc., San Diego, CA, USA), the mean absorbance for each sample was expressed as a percentage over the control and plotted vs. drug concentrations to establish the IC50 values. The given standard deviations (SDs) are indicative of three separate tests carried out in triplicate.
On the technique in general: Tetrazolium assays rely on reduction of a dye to a coloured formazan, in cell work by metabolically active cells.

Test [14] has as its system MDA-MB-231 cells. As to the kind of experiment: MTT cell viability assay, MDA-MB-231. The format is cell-based, human. The settings on record: Homo sapiens, MDA-MB-231, 72 h exposure, mean ± SD. How it is done: as §5, §6, §7
Test [15] relates to MCF-7 cells. In words: MTT cell viability assay, MCF-7. The settings on record: Homo sapiens, MCF7, 72 h exposure, mean ± SD. The class given is cell-based, human. How it is done:
as §5, §6, §7

The subject of test [16] is MDA-MB-231 cells. As to the kind of experiment: TUNEL assay (DNA damage). The class given is cell-based, human. As to conditions: 50 μM, 24 h. As for the experimental part: To further assess the effect of 3h treatment in MDA-MB-231, the terminal deoxynucleotidyl transferase dUTP nick-end labeling (TUNEL) assay was used. Thus, 3h or Thalidomide, as reference drug, were administered to the cells, for 24 h, at 25 and 50 μM concentrations, respectively, or with only the vehicle (DMSO), as negative control and then processed as outlined in the experimental section. […] Nuclei were counterstained with blue DAPI (Figure 2, panels A), and merge channels were also shown (Figure 2, panels C), where it is evident the perfect superposition of green and blue signals. […] Images taken from bright fields were also included (Figure 2, panels D).
DNA damage and cell death were analyzed by means of the TUNEL assay as indicated by the manufacturer’s protocols (CF™488A TUNEL Assay Apoptosis Detection Kit, Biotium, Hayward, CA, USA), with few changes, as in [42]. DAPI staining (0.2 μg/mL, Sigma Aldrich, Milan, Italy) was adopted for cell nuclei. Observations were made at 20× magnification using a fluorescence microscope (Leica DM 6000, Leica Microsystem Srl, Buccinasco, Italy). LAS-X software (Version: 3.5.7.23225; Leica Microsystem Srl, Buccinasco, Italy) was employed for the acquisition and processing of the images. Images are representative of two separate experiments from which different fields were acquired.
Figure 2 TUNEL assay. […]

In brackets after ≈: the same amount, converted by molar mass.

Broadly, the MIC is the lowest concentration found to suppress growth. In general, IC50 refers to the concentration needed to halve the response being measured.

Regarding `C[C@@H]1[C@H](O)[C@@H](C)/C=C/C=C/C=C/C=C/C=C/C=C/C=C/[C@H](O[C@@H]2O[C@H](C)[C@@H](O)[C@H](N)[C@@H]2O)C[C@@H]2O[C@](O)(C[C@@H](O)C[C@@H](O)[C@H](O)CC[C@@H](O)C[C@@H](O)CC(=O)O[C@H]1C)C[C@H](O)[C@H]2C(=O)O` [amph B, amphotericin B, reference compound], the minimal inhibitory concentration (MIC) in test [1] amounted to 1 µg/mL (≈ 1.08 µM); in test [2] it was 2 µg/mL (≈ 2.16 µM); in [3], 2 µg/mL (≈ 2.16 µM); in test [4] it was 2 µg/mL (≈ 2.16 µM).

Regarding `C[C@H]1COc2c(N3CCN(C)CC3)c(F)cc3c(=O)c(C(=O)O)cn1c23` [levofloxacin, reference compound], the MIC in test [5] stood at 8 µg/mL (≈ 22.1 µM); in test [6], 0.06 µg/mL (≈ 0.166 µM); in test [7], 0.5 µg/mL (≈ 1.38 µM); in [8] it was 4 µg/mL (≈ 11.1 µM); in test [9], 2 µg/mL (≈ 5.53 µM); in test [10] it was 0.5 µg/mL (≈ 1.38 µM). Moreover, the minimal inhibitory concentration (MIC) in [11] was determined as 8 µg/mL (≈ 22.1 µM); in test [12], 0.5 µg/mL (≈ 1.38 µM).

As for `O=C1CCC(N2C(=O)c3ccccc3C2=O)C(=O)N1` (stereo not shown) [thalidomide, reference compound], the concentration for half-maximal inhibition (IC50) in test [13] is more than 500 µM; in test [14], 413 ± 2 µM; in test [15], 360 ± 2 µM. In addition, the “DNA damage (TUNEL, green nuclear fluorescence)” value in test [16] is “found to damage DNA”.

The values above are taken from PMC10740580, “Benzothiazole-Phthalimide Hybrids as Anti-Breast Cancer and Antimicrobial Agents” (Antibiotics, 2023).
